The NIST ThermoML archive (doi:10.1021/je1005483)
± gives the expanded uncertainty stated by the source.

How the values were obtained:
[1] = molar heat capacity at constant pressure; xn = mol fraction of the nth substance listed; settings: 298.15 K, 101.3 kPa, Liquid, Flow calorimetry
[2] = xn = mol fraction of the nth substance listed; settings: 101.3 kPa, Liquid; for speed of sound: 298.15 K

CC1COC(=O)O1 (configuration not stated) [4-methyl-1,3-dioxolan-2-one] + CC#N
Settings | molar heat capacity at constant pressure, [1] [J/K/mol] | speed of sound, [2] [m/s]
x1 = 0.02042 | 93.86 ± 0.58 | –
x1 = 0.04818 | 95.91 ± 0.59 | –
x1 = 0.0502 | – | 1287.5 ± 2.7
x1 = 0.08041 | 98.29 ± 0.61 | –
x1 = 0.09602 | 99.45 ± 0.61 | –
x1 = 0.1021 | 99.9 ± 0.62 | –
x1 = 0.1022 | – | 1296.4 ± 2.7
x1 = 0.1298 | 101.95 ± 0.63 | –
x1 = 0.1438 | 103 ± 0.64 | –
x1 = 0.1512 | – | 1305.1 ± 2.7
x1 = 0.1521 | 103.61 ± 0.64 | –
x1 = 0.1801 | 105.69 ± 0.65 | –
x1 = 0.193 | 106.65 ± 0.66 | –
x1 = 0.1988 | 107.08 ± 0.66 | –
x1 = 0.2006 | – | 1313.9 ± 2.7
x1 = 0.3006 | 114.62 ± 0.71 | –
x1 = 0.3031 | – | 1331 ± 2.7
x1 = 0.3051 | – | 1331.6 ± 2.7
x1 = 0.3994 | 121.92 ± 0.75 | –
x1 = 0.4046 | – | 1351.6 ± 2.8
x1 = 0.4507 | 125.72 ± 0.78 | –
x1 = 0.4508 | 125.72 ± 0.78 | –
x1 = 0.5067 | – | 1369 ± 2.8
x1 = 0.5997 | 136.77 ± 0.84 | –
x1 = 0.5999 | 136.78 ± 0.84 | –
x1 = 0.6088 | – | 1386.6 ± 2.8
x1 = 0.6973 | 144.05 ± 0.89 | –
x1 = 0.7035 | – | 1399.3 ± 2.9
x1 = 0.7037 | – | 1399.4 ± 2.9
x1 = 0.7485 | 147.88 ± 0.91 | –
x1 = 0.7494 | 147.94 ± 0.91 | –
x1 = 0.7986 | – | 1415.1 ± 2.9
x1 = 0.856 | – | 1422.3 ± 2.9
x1 = 0.8995 | 159.26 ± 0.98 | –
x1 = 0.9004 | 159.33 ± 0.98 | –
x1 = 0.9052 | – | 1427.8 ± 2.9
x1 = 0.9518 | – | 1434.5 ± 2.9
x1 = 0.9766 | – | 1438 ± 2.9
x1 = 1 | 166.98 ± 1 | 1443 ± 2.9

mass density [kg/m3], [2]
Settings | 308.15 K | 318.15 K
x1 = 0.00899 | 772.153 ± 0.37 | –
x1 = 0.00987 | – | 762.8 ± 0.38
x1 = 0.01974 | 779.714 ± 0.36 | –
x1 = 0.02015 | – | 770.008 ± 0.37
x1 = 0.02827 | 785.631 ± 0.35 | –
x1 = 0.03912 | 793.054 ± 0.34 | –
x1 = 0.04049 | – | 783.973 ± 0.35
x1 = 0.04976 | 800.23 ± 0.34 | –
x1 = 0.04999 | – | 790.403 ± 0.35
x1 = 0.05955 | 806.732 ± 0.33 | –
x1 = 0.05968 | – | 796.854 ± 0.34
x1 = 0.06835 | 812.468 ± 0.33 | –
x1 = 0.06983 | – | 803.478 ± 0.33
x1 = 0.07649 | – | 807.807 ± 0.33
x1 = 0.08237 | 821.557 ± 0.32 | –
x1 = 0.09048 | – | 816.808 ± 0.32
x1 = 0.09065 | 826.854 ± 0.31 | –
x1 = 0.09974 | 832.541 ± 0.31 | –
x1 = 0.1015 | – | 823.802 ± 0.31
x1 = 0.1473 | 861.545 ± 0.28 | –
x1 = 0.1527 | – | 855.059 ± 0.28
x1 = 0.2011 | – | 882.847 ± 0.27
x1 = 0.2018 | 892.585 ± 0.26 | –
x1 = 0.2502 | – | 909.428 ± 0.25
x1 = 0.2509 | 919.09 ± 0.25 | –
x1 = 0.2971 | – | 933.541 ± 0.26
x1 = 0.2983 | 943.362 ± 0.24 | –
x1 = 0.4008 | 991.468 ± 0.25 | –
x1 = 0.4037 | – | 983.751 ± 0.28
x1 = 0.4905 | 1029.07 ± 0.3 | –
x1 = 0.5036 | – | 1025.46 ± 0.36
x1 = 0.5979 | 1069.65 ± 0.28 | –
x1 = 0.6004 | – | 1061.56 ± 0.45
x1 = 0.6902 | 1101.28 ± 0.28 | –
x1 = 0.7016 | – | 1095.76 ± 0.54
x1 = 0.7903 | 1132.31 ± 0.29 | –
x1 = 0.7997 | – | 1125.73 ± 0.65
x1 = 0.9005 | – | 1153.94 ± 0.3
x1 = 0.901 | 1163.56 ± 0.31 | –
x1 = 0.9113 | – | 1156.82 ± 0.77
x1 = 0.9121 | 1166.51 ± 0.32 | –
x1 = 0.9218 | 1169.02 ± 0.32 | –
x1 = 0.9302 | 1171.25 ± 0.33 | –
x1 = 0.934 | – | 1162.75 ± 0.78
x1 = 0.9408 | – | 1164.5 ± 0.31
x1 = 0.9411 | 1174.08 ± 0.32 | –
x1 = 0.9504 | 1176.45 ± 0.33 | –
x1 = 0.9519 | – | 1167.38 ± 0.81
x1 = 0.9608 | – | 1169.62 ± 0.32
x1 = 0.9609 | 1179.12 ± 0.33 | –
x1 = 0.9707 | – | 1172.11 ± 0.83
x1 = 0.9715 | 1181.77 ± 0.34 | –
x1 = 0.9815 | 1184.24 ± 0.34 | 1174.79 ± 0.33
x1 = 0.9908 | – | 1177.08 ± 0.86
x1 = 1 | 1188.73 ± 0.34 | 1179.31 ± 0.33
